Data: patent US20250011318A1 (ARCUS BIOSCIENCES, INC., priority 2023, published 2025)

Legend:
Cbl-b = molecular target: T1, Cbl-b (Homo sapiens, UniProt Q13191); assay: Cbl-b probe displacement HTRF binding assay; conditions: 0.4 nM biotinylated Cbl-b, 150 nM BODIPY probe
T1 construct: biotin (biotinylated)
Summary of the method: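 Probe-displacement HTRF in Hepes/NaCl/Triton/TCEP/BSA buffer at room temperature: compound dilutions (to 10 μM) incubated 60 min with 0.4 nM biotin-Cbl-b, 150 nM BODIPY probe added for 15 min, Tb-streptavidin read. Signal normalised to DMSO and no-protein controls; IC50 from four-parameter curve.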

Jurkat cells = assay: IL-2 secretion assay in CD3/CD28-activated Jurkat cells (AlphaLISA); type: cell-based, human; conditions: Homo sapiens, CD3/CD28 T Cell Activator, 24 h, IL-2 AlphaLISA
Summary of the method: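 IL-2 release quantified by AlphaLISA in supernatants after 24 h CD3/CD28 activation at 37° C. Compounds, 10 μM to 300 pM final in 1:2 steps, were added to 50,000 Jurkat cells/well 1 h before activation; 4-parameter fit gave EC50.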

T1 sequence (Q13191 whole entry, species assumed): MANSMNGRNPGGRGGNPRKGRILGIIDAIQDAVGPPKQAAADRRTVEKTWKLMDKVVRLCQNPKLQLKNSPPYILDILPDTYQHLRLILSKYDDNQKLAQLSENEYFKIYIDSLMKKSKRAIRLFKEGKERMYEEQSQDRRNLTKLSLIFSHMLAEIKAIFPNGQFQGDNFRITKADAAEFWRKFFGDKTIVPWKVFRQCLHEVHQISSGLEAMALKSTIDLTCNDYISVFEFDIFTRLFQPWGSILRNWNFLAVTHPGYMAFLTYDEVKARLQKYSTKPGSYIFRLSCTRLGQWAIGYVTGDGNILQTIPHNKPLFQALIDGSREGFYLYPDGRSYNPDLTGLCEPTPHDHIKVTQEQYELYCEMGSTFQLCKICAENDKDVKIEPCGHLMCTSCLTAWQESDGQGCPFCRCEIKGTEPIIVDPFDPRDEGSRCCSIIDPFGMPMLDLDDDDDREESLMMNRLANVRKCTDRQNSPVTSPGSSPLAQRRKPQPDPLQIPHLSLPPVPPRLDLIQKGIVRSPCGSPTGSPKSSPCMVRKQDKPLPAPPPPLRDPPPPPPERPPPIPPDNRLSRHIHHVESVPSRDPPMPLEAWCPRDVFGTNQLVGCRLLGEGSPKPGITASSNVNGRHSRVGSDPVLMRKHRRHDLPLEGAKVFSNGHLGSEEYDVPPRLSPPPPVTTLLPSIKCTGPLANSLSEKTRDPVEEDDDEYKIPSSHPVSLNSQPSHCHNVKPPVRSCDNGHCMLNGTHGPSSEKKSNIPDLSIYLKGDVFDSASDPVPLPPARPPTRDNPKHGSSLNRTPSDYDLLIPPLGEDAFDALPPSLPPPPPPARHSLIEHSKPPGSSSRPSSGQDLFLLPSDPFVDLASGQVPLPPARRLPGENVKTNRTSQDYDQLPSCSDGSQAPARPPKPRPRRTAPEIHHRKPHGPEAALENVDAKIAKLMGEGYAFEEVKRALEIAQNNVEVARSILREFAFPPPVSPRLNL

SMILES	IC50 (Cbl-b) [nM]	EC50 (Jurkat cells) [nM]
CC1(NCc2cc3c(C4CC4)cn(-c4cc(-c5ccc(C#N)cc5-c5ncccc5C(F)(F)F)cc(C5CC5)n4)c(=O)c3[nH]2)CCC1 [Example 73, 4-(6-cyclopropyl-2-{4-cyclopropyl-2-[(1-methylcyclobutylamino)methyl]-7-oxo-1,6-dihydro-1,6-diaza-6-indenyl}-4-pyridyl)-3-[3-(trifluoromethyl)-2-pyridyl]benzonitrile]	< 100	100 to 1000
C[C@H]1CCCN(Cc2cc3c(C4CC4)cn(-c4cc(-c5ccc(C#N)cc5-c5nncn5C)cc(Cl)n4)c(=O)c3[nH]2)C1 [Example 1, 4-[2-(2-{[(S)-3-methyl-1-piperidyl]methyl}-4-cyclopropyl-7-oxo-1,6-dihydro-1,6-diaza-6-indenyl)-6-chloro-4-pyridyl]-3-(4-methyl-4H-1,2,4-triazol-3-yl)benzonitrile]	< 100	< 100
